Holding throughout (format): biochemical
The target in experiment [1] is T1, trypsin, type IX from porcine pancreas (Sus scrofa, UniProt P00761).
T1 construct: purchased Sigma, St. Louis Mo; host or cells: porcine pancreas
The experiment is described as follows: Trypsin Assay (L-BAPNA, 405 nm). As to the method: 5 ug/ml trypsin, type IX^0 from porcine pancreas and 0.375 mM N-α-Benzoyl-L-arginine-p-nitroanilide (L-BAPNA) are added to a 96-well assay plate containing either inhibitor or buffer (50 mM Tris-HCl, pH 8.0, 100 mM NaCl, 0.1% BSA). The reactions, in a final volume of 100 ul are measured immediately at 405 nm to determine background absorbance. The plate is incubated at room temperature for 60 min, at which time the rate of hydrolysis of the substrate is measured by monitoring the reaction at 405 nm for the release of p-nitroaniline. Percent inhibition of trypsin activity is calculated from OD405nm value from the experimental and control sample.
(§1) Recombinant soluble TF, consisting of amino acids 1-219 of the mature protein sequence was expressed in E. coli and purified using a Mono Q Sepharose FPLC. Recombinant human Vlla was purchased from American Diagnostica, Greenwich Conn. and chromogenic substrate N-Methylsulfonyl-D-phe-gly-arg-p-nitroaniline was prepared by American Peptide Company, Inc., Sunnyvale, Calif. Factor Xa was obtained from Enzyme Research Laboratories, South Bend Ind., thrombin from Calbiochem, La Jolla, Calif., and trypsin and L-BAPNA from Sigma, St. Louis Mo. The chromogenic substrates S-2765 and S-2238 were purchased from Chromogenix, Sweden.

For experiment [2], the target named is T2, human factor Xa (Homo sapiens, UniProt P00742).
T2 construct: leads from XII to XIIa to XIa to IXa and to the conversion of X to Xa; purchased Enzyme Research Laboratories, South Bend Ind
The experiment in a line: Xa Assay (chromogenic substrate S-2765, 405 nm). As to the method:
0.3 nM human factor Xa and 0.15 mM N-a-Benzyloxycarbonyl-D-arginyl-L-glycyl-L-arginine-p-nitroaniline-dihydrochloride (S-2765) are added to a 96-well assay plate containing either inhibitor or buffer (50 mM Tris-HCl, pH 8.0, 100 mM NaCl, 0.1% BSA). The reaction, in a final volume of 100 ul is measured immediately at 405 nm to determine background absorbance. The plate is incubated at room temperature for 60 min, at which time the rate of hydrolysis of the substrate is measured by monitoring the reaction at 405 nm for the release of p-nitroaniline. Percent inhibition of Xa activity is calculated from OD405nm value from the experimental and control sample.
as §1

Experiment [3] deals with human thrombin (Homo sapiens, UniProt P00734). The experiment in a line: Thrombin Assay (chromogenic substrate, 405 nm). As to conditions: for IC50: read-out: Thrombin II IC50; for Thrombin II percent inhibition: at 30 (uM).
Protocol: 0.28 nM human thrombin and 0.06 mM H-D-Phenylalanyl-L-pipecolyl-L-arginine-p-nitroaniline dihydrochloride are added to a 96-well assay plate containing either inhibitor or buffer (50 mM Tris-HCl, pH 8.0, 100 mM NaCl, 0.1% BSA). The reaction, in a final volume of 100 ul is measured immediately at 405 nm to determine background absorbance. The plate is incubated at room temperature for 60 min, at which time the rate of hydrolysis of the substrate is measured by monitoring the reaction at 405 nm for the release of p-nitroaniline. Percent inhibition of thrombin activity is calculated from OD405nm value from the experimental and control sample.
The target of experiment [4] is T3, recombinant soluble tissue factor and recombinant human factor VIIa (TF-VIIa) (Homo sapiens, UniProt P08709).
T3 construct: purchased American Diagnostica, Greenwich Conn; soluble TF made in house in E. coli
The experiment in a line: TF-VIIa Assay (chromogenic substrate hydrolysis, 405 nm). The settings on record: read-out: IF-VIIA IC50.
Protocol: In this assay 100 nM recombinant soluble tissue factor and 2 nM recombinant human factor VIla are added to a 96-well assay plate containing 0.4 mM of the substrate, N-Methylsulfonyl-D-phe-gly-arg-p-nitroaniline and either inhibitor or buffer (5 mM CaCI2, 50 mM Tris-HCl, pH 8.0, 100 mM NaCl, 0.1% BSA). The reaction, in a final volume of 100 ul is measured immediately at 405 nm to determine background absorbance. The plate is incubated at room temperature for 60 min, at which time the rate of hydrolysis of the substrate is measured by monitoring the reaction at 405 nm for the release of p-nitroaniline. Percent inhibition of TF-VIIa activity is calculated from OD405nm value from the experimental and control sample.

The structures appear in SMILES notation. Read-outs that look alike come from different tables or passages of the source.

T3 sequence (P08709 213-466 limits assumed): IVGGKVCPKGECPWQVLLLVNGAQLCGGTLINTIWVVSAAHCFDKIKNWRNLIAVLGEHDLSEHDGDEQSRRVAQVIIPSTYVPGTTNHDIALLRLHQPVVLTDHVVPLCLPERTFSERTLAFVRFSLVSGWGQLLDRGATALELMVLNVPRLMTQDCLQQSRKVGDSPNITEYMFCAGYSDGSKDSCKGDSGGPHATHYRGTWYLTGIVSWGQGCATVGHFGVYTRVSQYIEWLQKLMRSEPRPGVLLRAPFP
T3 sequence (P08709 61-212 limits assumed): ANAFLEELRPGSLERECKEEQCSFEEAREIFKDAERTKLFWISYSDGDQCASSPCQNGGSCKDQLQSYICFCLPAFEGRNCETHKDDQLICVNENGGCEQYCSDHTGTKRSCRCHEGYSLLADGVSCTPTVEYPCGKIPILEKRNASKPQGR
T3 sequence (P13726 33-251 partner limits assumed): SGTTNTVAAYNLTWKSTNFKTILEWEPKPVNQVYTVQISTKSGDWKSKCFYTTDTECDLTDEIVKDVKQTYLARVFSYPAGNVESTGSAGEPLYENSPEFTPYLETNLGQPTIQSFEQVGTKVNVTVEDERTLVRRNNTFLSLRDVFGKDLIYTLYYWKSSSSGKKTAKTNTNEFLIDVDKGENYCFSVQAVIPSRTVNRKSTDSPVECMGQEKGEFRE
T1 sequence (P00761 9-231): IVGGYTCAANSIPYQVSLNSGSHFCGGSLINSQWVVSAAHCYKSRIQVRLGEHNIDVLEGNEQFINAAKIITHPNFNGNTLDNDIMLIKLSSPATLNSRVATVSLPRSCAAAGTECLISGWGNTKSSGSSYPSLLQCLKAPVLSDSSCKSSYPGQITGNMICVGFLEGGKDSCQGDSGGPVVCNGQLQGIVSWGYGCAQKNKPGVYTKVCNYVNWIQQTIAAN
T2 sequence (P00742 235-488 limits assumed): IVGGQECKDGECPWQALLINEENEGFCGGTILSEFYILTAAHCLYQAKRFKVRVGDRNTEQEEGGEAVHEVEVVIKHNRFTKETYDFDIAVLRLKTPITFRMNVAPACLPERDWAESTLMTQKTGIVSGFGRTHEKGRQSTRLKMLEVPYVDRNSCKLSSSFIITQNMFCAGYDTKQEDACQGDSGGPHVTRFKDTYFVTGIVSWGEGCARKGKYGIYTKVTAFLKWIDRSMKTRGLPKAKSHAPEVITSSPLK
T2 sequence (P00742 41-179 limits assumed): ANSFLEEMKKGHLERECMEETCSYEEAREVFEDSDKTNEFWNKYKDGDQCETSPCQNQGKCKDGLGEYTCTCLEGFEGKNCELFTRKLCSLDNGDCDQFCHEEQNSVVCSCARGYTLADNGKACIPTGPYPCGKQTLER

As to `O=C(NCC1CCNCC1)c1cc(NS(=O)(=O)Cc2ccccc2)ccc1Sc1ccccc1` [Example 1], the IC50 (in general, the concentration needed to halve the response being measured) was 0.3 µM in experiment [1] (read-out: Trpysin II IC50), above 30 µM in experiment [2] and above 30 µM in experiment [3].

With `CN(C)c1ccc(CNC(=O)c2cc(NS(=O)(=O)Cc3ccccc3)ccc2Sc2ccccc2)cc1` [Example 2], the IC50 in experiment [1] (read-out: Trpysin II IC50) and in experiment [3] was above 30 µM each time.

As for `O=C(NCc1ccncc1)c1cc(NS(=O)(=O)Cc2ccccc2)ccc1Sc1ccccc1` [Example 3], the IC50 in experiment [1] (read-out: Trpysin II IC50) and in experiment [3] was above 30 µM in each case.

For `Cl.N=C(N)c1ccc(CNC(=O)c2cc(NS(=O)(=O)Cc3ccccc3)ccc2Sc2ccccc2)cc1` [Example 4], the IC50 in experiment [1] was 0.3 µM. Further, the “Thrombin II percent inhibition” value in experiment [3] is reported as 22% at 30.

As to `N=C(N)c1cccc(CNC(=O)c2cc(NS(=O)(=O)Cc3ccccc3)ccc2Sc2ccccc2)c1` [Example 5], the IC50 in experiment [1] (read-out: Trpysin II IC50) is 23 µM; in experiment [4] it was above 30 µM. Also, the “Factor Xa percent inhibition” value in experiment [2] (at 30 (uM)) is on record as 7% at 30. The “Thrombin II percent inhibition” value in experiment [3] worked out at 43% at 30.

As to `N=C(N)NCCCNC(=O)c1cc(NS(=O)(=O)Cc2ccccc2)ccc1Sc1ccccc1` [Example 6], the IC50 in experiment [1] (read-out: Trpysin II IC50), in experiment [2], in experiment [3] and in experiment [4] was above 100 µM throughout.

As for `N=C(N)NCCCCNC(=O)c1cc(NS(=O)(=O)Cc2ccccc2)ccc1Sc1ccccc1` [Example 7], the IC50 in experiment [1] (read-out: Trpysin II IC50), in experiment [2], in experiment [3] and in experiment [4] was above 100 µM throughout.

With `N=C(N)NCCCCCNC(=O)c1cc(NS(=O)(=O)Cc2ccccc2)ccc1Sc1ccccc1` [Example 8], the IC50 in experiment [1] (read-out: Trpysin II IC50), in experiment [2], in experiment [3] and in experiment [4] was above 100 µM in each case.

Regarding `O=C(Cc1c(F)ccc(NS(=O)(=O)Cc2ccccc2)c1F)NCC1CCNCC1` [Example 9], the figures for the IC50 in experiment [1] (read-out: Trpysin II IC50) and in experiment [3] were 0.3 µM and above 30 µM, respectively.

Take `CN(C)c1ccc(CNC(=O)Cc2c(F)ccc(NS(=O)(=O)Cc3ccccc3)c2F)cc1` [Example 10]: the IC50 in experiment [1] (read-out: Trpysin II IC50), in experiment [2] and in experiment [3] was above 30 µM throughout.

Consider `O=C(Cc1c(F)ccc(NS(=O)(=O)Cc2ccccc2)c1F)NCc1ccncc1` [Example 11], for which the IC50 in experiment [1] (read-out: Trpysin II IC50), in experiment [2] and in experiment [3] was above 30 µM throughout.

Take `O=C(Cc1c(F)ccc(NS(=O)(=O)Cc2ccccc2)c1F)NCCCn1ccnc1` [Example 12]: the IC50 in experiment [1] (read-out: Trpysin II IC50) and in experiment [3] was above 30 µM throughout.

Take `N=C(N)c1cccc(CNC(=O)Cc2c(F)ccc(NS(=O)(=O)Cc3ccccc3)c2F)c1` [Example 13]: the IC50 in experiment [1] (read-out: Trpysin II IC50), in experiment [2] and in experiment [3] was above 30 µM in each case.

Take `N=C(N)c1ccc(CNC(=O)Cc2c(F)ccc(NS(=O)(=O)Cc3ccccc3)c2F)cc1` [Example 14]: the IC50 in experiment [1] (read-out: Trpysin II IC50) was 7.3 µM; in experiment [3], around 30 µM.

As to `N=C(N)NCCCCCNC(=O)Cc1c(F)ccc(NS(=O)(=O)Cc2ccccc2)c1F` [Example 15], the IC50 in experiment [1] (read-out: Trpysin II IC50) and in experiment [3] was above 30 µM in each case.

As to `N=C(N)c1ccc(CNC(=O)Cc2c(F)ccc(NCCc3ccccc3)c2F)cc1` [Example 16], the values for the IC50 in experiment [1] (read-out: Trpysin II IC50), in experiment [3] and in experiment [4] were 0.8 µM, 1.6 µM and 16.4 µM, respectively. Also, in experiment [2] (at 30 (uM)), the “Factor Xa percent inhibition” value is recorded as 1% at 30.

Consider `N=C(N)c1ccc(CNC(=O)Cc2c(-c3ccccc3)ccc(NCCc3ccccc3)c2F)cc1` [Example 17], for which the 50% inhibitory concentration (IC50) worked out at 0.2 µM in experiment [1] (read-out: Trpysin II IC50), 7 µM in experiment [3] and 4 µM in experiment [4].

Turning to `COc1c(NCCc2ccccc2)ccc(-c2ccccc2)c1CC(=O)NCc1ccc(C(=N)N)cc1` [Example 18], the IC50 in experiment [1] (read-out: Trpysin II IC50) is 0.5 µM; in experiment [2], above 30 µM; in experiment [3], 9.5 µM; in experiment [4], 25 µM.

For `N=C(N)c1ccc(CNC(=O)Cc2c(-c3ccccc3)ccc(NCCc3ccccc3)c2O)cc1` [Example 19], the IC50 in experiment [1] (read-out: Trpysin II IC50) is 0.2 µM; in experiment [3] it was 7 µM; in experiment [4], 2.7 µM.

In the case of `N=C(N)c1ccc(CNC(=O)Cc2c(-c3cccc(N)c3)ccc(NCc3ccccc3)c2F)cc1` [Example 20], the IC50 is 0.2 µM in experiment [1] (read-out: Trpysin II IC50), above 30 µM in experiment [2], 9 µM in experiment [3] and 0.67 µM in experiment [4].

On to `CC(C)Nc1ccc(-c2cccc(N)c2)c(CC(=O)NCc2ccc(C(=N)N)cc2)c1F` [Example 21], for which, in experiment [1] (read-out: Trpysin II IC50), the IC50 is below 0.04 µM. Besides, in experiment [2] (concentration not given), the “Factor Xa percent inhibition” value is on record as 18%.

On to `COc1c(NC(C)C)ccc(-c2ccccc2)c1CC(=O)NCc1ccc(C(=N)N)cc1` [Example 22], for which the IC50 is 0.1 µM in experiment [1] (read-out: Trpysin II IC50), 7.9 µM in experiment [3] and 14.7 µM in experiment [4].

(Values after patent publication US6660885B2, “Polycyclic aryl and heteroaryl substituted benzenes useful for selective inhibition of the coagulation cascade” (Pharmacia Corporation, priority 2000, dated 2003).)
